In US20150209354A1, “CASEIN KINASE 1 INHIBITORS FOR THE TREATMENT OF B-CELL CHRONIC LYMPHOCYTIC|LEUKEMIA” (MASARYKOVA UNIVERZITA, priority 2012, published 2015):
“Also recorded” adds a separate entry of the source.

Experiments:
primary CLL cells [1] = experiment: Rate of apoptosis of primary CLL cells by mitochondrial membrane potential (TMRE/calcein flow cytometry); type: cell-based, human; conditions: 100 μM D4476, 20 hours pre-treatment; TMRE and calcein staining; vs DMSO
Method: (§1) FIG. 3: CK1 controls the migration of CLL cells in vivo. (A) Layout of the experiment: CLL cells were obtained by purification from the samples of fresh blood from patients, stimulated and stained in vitro using green calcein. They were subsequently intraperitoneally injected to NSG mice. After 24 hours the murine tissues were examined for the presence of calcein-positive CLL cells using flow-cytometry (refer to the G1 cut-out in the typical dot plot distribution). (B) The rate of apoptosis in primary CLL cells after adding DMSO/D4476 (CK1 inh. I) was determined by the analysis of membrane potential of mitochondria using flow-cytometry while using tetramethylrhodamine ethyl ester (TMRE) stained with green calcein dye. […] The charts show the ratio of the CLL cells (the quantity of positive cells/total quantity of cells in the organ) treated by DMSO or D4476 (CK1 inh. I) that were obtained from the spleen (Ci), liver (Cii), and bone marrow (Ciii) of transplanted mice. […]
Freshly isolated human CLL lymphocytes (25×10^6 from the patient) were pre-treated for 20 hours with a CK1 inhibitor (100 μM, D4476, Calbiochem), and dimethylsulfoxide (DMSO, Sigma-Aldrich) as control. […] Samples of spleen, liver, and femoral bone marrow of mice were taken 24 hours after the injection and analyzed. Migration of calcein-positive CLL cells to these tissues was determined by FACS analysis (FACScalibur). […]

MEC1 cells [2] = experiment: Chemokine-controlled transendothelial invasion of MEC1 cells through HUVEC layer (Transwell); type: cell-based, human; conditions: D4476 100 μM overnight, HUVEC-covered Transwell
Method: FIG. 2: Transendothelial invasiveness of the MEC1 cells was tested in the Transwell migration chamber in an arrangement where the upper chamber was covered with one layer of HUVEC endothelial cells. The rate of invasiveness (determined as the migration index) of the MEC1 cells was analyzed in the presence of the chemokine CCL19, Wnt5a, or in combination of both substances. The positive effect of CCL19 to the transendothelial migration of MEC1 was inhibited by addition of D4476 (CK1 inh. I). Statistical significance was tested using One-way ANOVA test and Tukey post-hoc test (***p<0.001). Each experiment was independently repeated three-times.
In the complex environment of the human body, cells react to the attractants and have to pass through extra-cellular matrix or endothelial barrier, which is a process known as invasion. […]
Into the upper insert of HTS Transwell® 96-well plates (Corning Incorporated, Mexico) with polycarbonate membranes with the pore size of 5.0 μm, covered with HUVEC (human umbilical vein endothelial cells monolayer), 0.5×10^6 MEC1 cells were seeded. […] The migration to chemokine was then analyzed using the Coulter Counter instrument (model FN, Coulter Electronics, Fla., USA). The migration index was calculated as the number of cells (treated or non-treated) migrating to the chemokine divided by the number of cells migrating only to the control medium.

primary CLL cells [3] = experiment: Migration of pre-treated primary CLL cells into tissues of transplanted NSG mice (FACS of calcein-positive cells); type: in vivo; conditions: cells pre-treated 20 hours with 100 μM D4476; intraperitoneal injection; tissues analysed after 24 hours; vs DMSO
Method: as §1
Freshly isolated human CLL lymphocytes (25×10^6 from the patient) were pre-treated for 20 hours with a CK1 inhibitor (100 μM, D4476, Calbiochem), and dimethylsulfoxide (DMSO, Sigma-Aldrich) as control. […] Samples of spleen, liver, and femoral bone marrow of mice were taken 24 hours after the injection and analyzed. Migration of calcein-positive CLL cells to these tissues was determined by FACS analysis (FACScalibur).

MEC1 cells [4] = experiment: Transwell migration of MEC1 cells to chemokines CCL19 and CCL21; type: cell-based, human; conditions: D4476 100 μM overnight; CCL19 and CCL21 200 ng/ml; vs DMSO control
Method: FIG. 1: Migration of MEC1 cells which represents an in-vitro CLL model was investigated in the presence of chemokines CCL19 and CCL21 (200 ng/ml) using Transwell migration chamber. The rate of migration is expressed as a migration index. The MEC1 migration triggered by the chemokines CCL21 and CCL19 is blocked by CK1 inhibitors—D4476 (CK1 inh. I; 100 μM) and PF670462 (CK1 inh. II; 50 μM). The values in the FIGS. 1A and 1B represent the average and the standard error. Statistical significance was tested using One-way ANOVA and Tukey post-hoc test (*p<0.05, **p<0.01, ***p<0.001).
In this example, the MEC1 cell line was used, which is a well-defined cell line obtained from a CLL patient in a pro-lymphocytic transformation. The MEC1 line is used as a transplantation model of CLL. […]
Into the upper insert of HTS Transwell® 96-well plates (Corning Incorporated, Mexico) with polycarbonate membranes with the pore size of 5.0 μm, 0.5×10^6 MEC1 cells were seeded. […] The migration to chemokine was then analyzed using the Coulter Counter instrument (model FN, Coulter Electronics, Fla., USA). The migration index was calculated as the number of cells (treated or non-treated) migrating to the chemokine divided by the number of cells migrating only to the control medium.

For NC(=O)c1ccc(-c2nc(-c3ccc4c(c3)OCCO4)c(-c3ccccn3)[nH]2)cc1 [D4476], the “rate of apoptosis in primary CLL cells” value (primary CLL cells [1]) was “does not alter the rate of apoptosis; also recorded: without an increase of cell apoptosis being detected”, the “CCL19-induced transendothelial migration (invasiveness, migration index) of MEC1 cells” value (MEC1 cells [2]) was “inhibited” and the “migration of CLL cells to the spleen, liver and bone marrow” value (primary CLL cells [3]) was “reduced”. For the same compound, the “MEC1 migration (migration index) triggered by the chemokines CCL21 and CCL19” value (MEC1 cells [4]) was “blocked”.
